Where a name gives a salt, the structure may show the parent alone.

As usually defined, the IC50 is the concentration that gives 50% inhibition.

One test has as its target IKKε (Homo sapiens (Human), UniProt Q14164). In words: IKKε TR-FRET enzymatic assay. The format is biochemical. As to conditions: TR-FRET, 2×Km ATP; geometric mean of minimum four determinations; read-out: IKKe IC50.
The next test deals with hJAK2 (Homo sapiens (Human), UniProt O60674). In words: hJAK2 LANCE TR-FRET enzymatic assay. The format is biochemical. As to conditions: read-out: JAK2 IC50. On the technique in general: In TR-FRET formats the signal depends on donor and acceptor labels being close together.
Another test deals with TBK1 (Homo sapiens (Human), UniProt Q9UHD2). The test can be described thus: TBK1 TR-FRET enzymatic assay.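 Also: phosphorylation of a biotinylated Ser/Thr peptide by purified full-length recombinant TBK1, read by TR-FRET after 240 min at 25 °C, IC50 is the geometric mean of at least four runs.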
TBK1, sequence (Q9UHD2 whole entry): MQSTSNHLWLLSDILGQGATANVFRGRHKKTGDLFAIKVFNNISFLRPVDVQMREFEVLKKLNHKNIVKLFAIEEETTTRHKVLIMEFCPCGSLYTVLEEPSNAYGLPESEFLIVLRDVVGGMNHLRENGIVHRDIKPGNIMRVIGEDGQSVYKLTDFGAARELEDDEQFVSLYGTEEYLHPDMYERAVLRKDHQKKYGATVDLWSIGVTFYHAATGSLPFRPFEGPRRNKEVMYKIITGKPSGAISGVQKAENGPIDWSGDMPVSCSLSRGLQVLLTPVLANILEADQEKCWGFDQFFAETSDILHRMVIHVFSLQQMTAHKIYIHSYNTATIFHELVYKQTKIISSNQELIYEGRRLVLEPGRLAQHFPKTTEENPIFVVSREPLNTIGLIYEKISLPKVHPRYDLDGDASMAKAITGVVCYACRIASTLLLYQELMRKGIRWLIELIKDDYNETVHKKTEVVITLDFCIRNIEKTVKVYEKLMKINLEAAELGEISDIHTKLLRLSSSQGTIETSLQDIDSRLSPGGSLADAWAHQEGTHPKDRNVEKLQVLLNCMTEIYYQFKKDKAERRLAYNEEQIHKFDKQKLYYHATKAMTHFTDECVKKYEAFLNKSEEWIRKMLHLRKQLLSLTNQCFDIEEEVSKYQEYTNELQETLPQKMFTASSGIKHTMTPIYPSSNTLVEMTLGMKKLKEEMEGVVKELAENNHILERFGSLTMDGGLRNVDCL

hJAK2, sequence (O60674 whole entry): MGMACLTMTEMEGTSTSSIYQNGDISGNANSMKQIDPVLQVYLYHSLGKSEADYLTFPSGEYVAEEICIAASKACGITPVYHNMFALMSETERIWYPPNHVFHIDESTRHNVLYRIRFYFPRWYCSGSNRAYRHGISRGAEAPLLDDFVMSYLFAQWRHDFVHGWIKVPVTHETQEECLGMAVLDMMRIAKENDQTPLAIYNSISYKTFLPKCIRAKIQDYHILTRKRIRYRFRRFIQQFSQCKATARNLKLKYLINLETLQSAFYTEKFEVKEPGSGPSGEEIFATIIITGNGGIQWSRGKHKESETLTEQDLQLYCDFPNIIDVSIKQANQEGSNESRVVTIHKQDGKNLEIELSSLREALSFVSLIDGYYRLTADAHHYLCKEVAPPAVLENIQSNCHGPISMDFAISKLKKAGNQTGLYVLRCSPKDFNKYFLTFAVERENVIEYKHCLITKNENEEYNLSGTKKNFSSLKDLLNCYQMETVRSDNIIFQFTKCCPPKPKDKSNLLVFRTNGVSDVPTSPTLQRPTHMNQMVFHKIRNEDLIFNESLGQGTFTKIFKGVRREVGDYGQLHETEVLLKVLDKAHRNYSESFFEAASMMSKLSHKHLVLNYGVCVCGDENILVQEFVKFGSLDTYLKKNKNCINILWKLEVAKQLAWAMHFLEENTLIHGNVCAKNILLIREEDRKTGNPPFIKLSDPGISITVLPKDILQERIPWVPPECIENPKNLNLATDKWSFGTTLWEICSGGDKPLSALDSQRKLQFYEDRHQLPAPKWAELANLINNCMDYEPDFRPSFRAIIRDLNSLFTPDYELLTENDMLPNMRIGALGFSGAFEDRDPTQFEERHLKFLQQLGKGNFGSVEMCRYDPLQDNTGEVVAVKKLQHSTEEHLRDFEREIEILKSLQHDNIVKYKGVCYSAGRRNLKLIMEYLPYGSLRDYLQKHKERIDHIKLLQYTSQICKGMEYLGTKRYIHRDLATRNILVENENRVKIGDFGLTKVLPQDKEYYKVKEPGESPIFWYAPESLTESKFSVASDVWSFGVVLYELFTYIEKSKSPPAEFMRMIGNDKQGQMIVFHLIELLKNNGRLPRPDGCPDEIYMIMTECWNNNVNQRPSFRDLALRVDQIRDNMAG
IKKε, sequence (Q14164 whole entry): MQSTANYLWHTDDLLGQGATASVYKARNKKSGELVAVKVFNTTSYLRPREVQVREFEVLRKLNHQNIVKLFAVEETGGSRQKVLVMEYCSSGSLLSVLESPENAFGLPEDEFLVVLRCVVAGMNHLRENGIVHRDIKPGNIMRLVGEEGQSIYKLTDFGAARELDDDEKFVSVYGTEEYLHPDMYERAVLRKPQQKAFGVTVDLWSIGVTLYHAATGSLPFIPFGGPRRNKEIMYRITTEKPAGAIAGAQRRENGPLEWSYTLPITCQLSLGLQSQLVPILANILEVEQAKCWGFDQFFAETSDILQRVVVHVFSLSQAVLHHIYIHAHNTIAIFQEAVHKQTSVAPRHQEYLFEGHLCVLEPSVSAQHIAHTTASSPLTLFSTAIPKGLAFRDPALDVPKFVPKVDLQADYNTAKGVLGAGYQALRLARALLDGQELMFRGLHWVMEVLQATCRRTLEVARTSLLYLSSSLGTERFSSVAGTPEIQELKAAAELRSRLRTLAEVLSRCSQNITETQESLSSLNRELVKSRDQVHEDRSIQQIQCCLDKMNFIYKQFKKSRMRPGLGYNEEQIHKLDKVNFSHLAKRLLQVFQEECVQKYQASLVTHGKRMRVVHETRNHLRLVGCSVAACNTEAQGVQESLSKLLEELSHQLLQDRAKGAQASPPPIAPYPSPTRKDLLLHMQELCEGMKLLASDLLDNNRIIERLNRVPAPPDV

With `CC(C)[C@@H](O)C(=O)N1CC[C@H](Oc2ccc(-c3ncnc(Nc4ccc(N5CCN(C6COC6)CC5)cc4)n3)cc2C#N)[C@H](F)C1` [Example 465, 2-(((3R,4S)-3-fluoro-1-((R)-2-hydroxy-3-methylbutanoyl)piperidin-4-yl)oxy)-5-(4-((4-(4-(oxetan-3-yl)piperazin-1-yl)phenyl)amino)-1,3,5-triazin-2-yl)benzonitrile], the IC50 on IKKε turned out to be 364 nM; at hJAK2 it was 706 nM; against TBK1 it was 146 nM.
On to `N#CCC(=O)N1CC[C@H](Oc2ccc(-c3ncnc(Nc4ccc(N5CCO[C@@H](CO)C5)cc4)n3)cc2C#N)[C@H](F)C1` [Example 467, 2-(((3R,4S)-1-(2-cyanoacetyl)-3-fluoropiperidin-4-yl)oxy)-5-(4-((4-((R)-2-(hydroxymethyl)morpholino)phenyl)amino)-1,3,5-triazin-2-yl)benzonitrile], for which the IC50 on IKKε was 4 nM; on hJAK2, 171 nM; against TBK1, 4 nM.
Take `C[C@H](O)C(=O)N1CC[C@H](Oc2ccc(-c3ncnc(Nc4ccc(N5CCN(C6COC6)[C@@H](CO)C5)cc4)n3)cc2C#N)[C@H](F)C1` [Example 468, 2-(((3R,4S)-3-fluoro-1-((S)-2-hydroxypropanoyl)piperidin-4-yl)oxy)-5-(4-((4-((R)-3-(hydroxymethyl)-4-(oxetan-3-yl)piperazin-1-yl)phenyl)amino)-1,3,5-triazin-2-yl)benzonitrile]: the IC50 is 2 nM at IKKε, 486 nM on hJAK2 and 3 nM at TBK1.
In the same order, the values of `C[C@H](O)C(=O)N1CC[C@H](Oc2ccc(-c3ncnc(Nc4ccc(N5CCN(C6COC6)[C@@H](CO)C5)cc4)n3)cc2C#N)C(F)(F)C1` [Example 469, 2-(((S)-3,3-difluoro-1-((S)-2-hydroxypropanoyl)piperidin-4-yl)oxy)-5-(4-((4-((R)-3-(hydroxymethyl)-4-(oxetan-3-yl)piperazin-1-yl)phenyl)amino)-1,3,5-triazin-2-yl)benzonitrile] are 1 nM, 197 nM and 2 nM.
For `C[C@H](O)CC(=O)N1CC[C@H](Oc2ccc(-c3ncnc(Nc4ccc(N5CCN(C6COC6)CC5)cc4)n3)cc2C#N)[C@H](F)C1` [Example 470, 2-(((3R,4S)-3-fluoro-1-((S)-3-hydroxybutanoyl)piperidin-4-yl)oxy)-5-(4-((4-(4-(oxetan-3-yl)piperazin-1-yl)phenyl)amino)-1,3,5-triazin-2-yl)benzonitrile], the IC50 on IKKε was 44 nM; on hJAK2, at least 1000 nM; on TBK1 it was 12 nM.
As for `C[C@@H](O)CC(=O)N1CC[C@H](Oc2ccc(-c3ncnc(Nc4ccc(N5CCN(C6COC6)CC5)cc4)n3)cc2C#N)[C@H](F)C1` [Example 471, 2-(((3R,4S)-3-fluoro-1-((R)-3-hydroxybutanoyl)piperidin-4-yl)oxy)-5-(4-((4-(4-(oxetan-3-yl)piperazin-1-yl)phenyl)amino)-1,3,5-triazin-2-yl)benzonitrile], the IC50 at IKKε came out at 14 nM; on hJAK2, 702 nM; against TBK1, 6 nM.
`N#Cc1cc(-c2ncnc(Nc3ccc(N4CCN(C5COC5)CC4)cc3)n2)ccc1O[C@H]1CCN(C(=O)C2(O)COC2)C[C@H]1F` [Example 472, 2-(((3R,4S)-3-fluoro-1-(3-hydroxyoxetane-3-carbonyl)piperidin-4-yl)oxy)-5-(4-((4-(4-(oxetan-3-yl)piperazin-1-yl)phenyl)amino)-1,3,5-triazin-2-yl)benzonitrile]: the IC50 at IKKε was 43 nM; at hJAK2, 971 nM; against TBK1 it was 19 nM.
Regarding `N#Cc1cc(-c2ncnc(Nc3ccc(N4CCN(C5COC5)CC4)cc3)n2)ccc1O[C@H]1CCN(C(=O)c2cnco2)C[C@H]1F` [Example 473, 2-(((3R,4S)-3-fluoro-1-(oxazole-5-carbonyl)piperidin-4-yl)oxy)-5-(4-((4-(4-(oxetan-3-yl)piperazin-1-yl)phenyl)amino)-1,3,5-triazin-2-yl)benzonitrile], the IC50 came to 3 nM at IKKε, 771 nM on hJAK2 and 3 nM against TBK1.
Take `COc1cc(Nc2ncnc(-c3ccc(O[C@H]4CCN(C(=O)[C@H](C)O)C[C@H]4F)c(C#N)c3)n2)ccn1` [Example 474]: the figures for the IC50 at IKKε, at hJAK2 and on TBK1 were 10 nM, at least 1000 nM and 6 nM, respectively.
In the same order, the values of `N#Cc1cc(-c2ncnc(Nc3ccc(N4CCN(C5COC5)CC4)cc3)n2)ccc1O[C@H]1CCN(C(=O)[C@@H]2COCCN2)C[C@H]1F` [Example 475, 2-(((3R,4S)-3-fluoro-1-((S)-morpholine-3-carbonyl)piperidin-4-yl)oxy)-5-(4-((4-(4-(oxetan-3-yl)piperazin-1-yl)phenyl)amino)-1,3,5-triazin-2-yl)benzonitrile] are 50 nM, at least 1000 nM and 23 nM.
As to `C[C@H](O)C(=O)N1CC[C@H](Oc2ccc(-c3ncnc(Nc4ccc(-c5ccn(C)c(=O)c5)cc4)n3)cc2C#N)[C@H](F)C1` [Example 476, 2-(((3R,4S)-3-fluoro-1-((S)-2-hydroxypropanoyl)piperidin-4-yl)oxy)-5-(4-((4-(1-methyl-2-oxo-1,2-dihydropyridin-4-yl)phenyl)amino)-1,3,5-triazin-2-yl)benzonitrile], the IC50 at IKKε is 3 nM; at hJAK2, at least 1000 nM; on TBK1, 3 nM.
Turning to `N#Cc1cc(-c2ncnc(Nc3ccc(N4CCN(C5COC5)CC4)cc3)n2)ccc1O[C@H]1CCN(C(=O)c2cocn2)C[C@H]1F` [Example 477, 2-(((3R,4S)-3-fluoro-1-(oxazole-4-carbonyl)piperidin-4-yl)oxy)-5-(4-((4-(4-(oxetan-3-yl)piperazin-1-yl)phenyl)amino)-1,3,5-triazin-2-yl)benzonitrile], the concentration for half-maximal inhibition (IC50) on IKKε was found to be 2 nM; on hJAK2 it was 526 nM; against TBK1, 3 nM.
As to `N#Cc1cc(-c2ncnc(Nc3ccc(N4CCN(C5COC5)CC4)cc3)n2)ccc1O[C@H]1CCN(C(=O)NO)C[C@H]1F` [Example 478, (3R,4S)-4-(2-cyano-4-(4-((4-(4-(oxetan-3-yl)piperazin-1-yl)phenyl)amino)-1,3,5-triazin-2-yl)phenoxy)-3-fluoro-N-hydroxypiperidine-1-carboxamide], the IC50 stood at 1 nM on IKKε, 135 nM at hJAK2 and 3 nM at TBK1.
In the same order, the values of `COc1cc(Nc2ncnc(-c3ccc(O[C@H]4CCN(C(=O)[C@@H](O)CO)CC4(F)F)c(C#N)c3)n2)ccn1` [Example 479, 2-(((S)-1-((S)-2,3-dihydroxypropanoyl)-3,3-difluoropiperidin-4-yl)oxy)-5-(4-((2-methoxypyridin-4-yl)amino)-1,3,5-triazin-2-yl)benzonitrile] are 1 nM, at least 1000 nM and 2 nM.
In the same order, the values of `N#Cc1cc(-c2ncnc(Nc3ccc(N4CCN(C5COC5)CC4)cc3)n2)ccc1O[C@H]1CCN(c2ccccn2)C[C@H]1F` [Example 480, 2-(((3R,4S)-3-fluoro-1-(pyridin-2-yl)piperidin-4-yl)oxy)-5-(4-((4-(4-(oxetan-3-yl)piperazin-1-yl)phenyl)amino)-1,3,5-triazin-2-yl)benzonitrile] are 180 nM, at least 1000 nM and 47 nM.
In the case of `CS(=N)(=O)c1ccc(Nc2ncnc(-c3ccc(O[C@H]4CCN(C=O)CC4(F)F)c(C#N)c3)n2)cc1` (stereo partly drawn) [Example 482, 2-(((S)-3,3-difluoro-1-formylpiperidin-4-yl)oxy)-5-(4-((4-(S-methylsulfonimidoyl)phenyl)amino)-1,3,5-triazin-2-yl)benzonitrile], the IC50 at IKKε was found to be 7 nM; on hJAK2 it was 221 nM; at TBK1, 5 nM.
On to `COc1cc(Nc2ncnc(-c3ccc(O[C@H]4CCN(C(=O)[C@H](C)O)C[C@H]4F)c(C#N)c3)n2)ccc1S(C)(=O)=O` [Example 483, 2-(((3R,4S)-3-fluoro-1-((S)-2-hydroxypropanoyl)piperidin-4-yl)oxy)-5-(4-((3-methoxy-4-(methylsulfonyl)phenyl)amino)-1,3,5-triazin-2-yl)benzonitrile], for which the IC50 on IKKε is 6 nM; on hJAK2, at least 1000 nM; against TBK1, 8 nM.
In the same order, the values of `CS(=O)(=O)c1ccc(-c2ncnc(Nc3ccc(N4CCN(C5COC5)CC4)cc3)n2)cc1` [Example 484, 4-(4-(methylsulfonyl)phenyl)-N-(4-(4-(oxetan-3-yl)piperazin-1-yl)phenyl)-1,3,5-triazin-2-amine, trifluoroacetic acid salt] are at least 1000 nM, 837 nM and 1000 nM.
Consider `Cc1cc(Nc2ncnc(-c3ccc(O[C@H]4CCN(C(=O)c5cn(C)nn5)C[C@H]4F)c(C#N)c3)n2)ccc1C1CCN(C)CC1` [Example 485, 2-(((3R,4S)-3-fluoro-1-(1-methyl-1H-1,2,3-triazole-4-carbonyl)piperidin-4-yl)oxy)-5-(4-((3-methyl-4-(1-methylpiperidin-4-yl)phenyl)amino)-1,3,5-triazin-2-yl)benzonitrile], for which the IC50 stood at 1 nM at IKKε, 576 nM on hJAK2 and 3 nM against TBK1.
In the same order, the values of `C[C@H](O)C(=O)N1CC[C@H](Oc2ccc(-c3ncnc(Nc4cccc(C(C)(C)O)c4)n3)cc2C#N)[C@H](F)C1` [Example 486, 2-(((3R,4S)-3-fluoro-1-((S)-2-hydroxypropanoyl)piperidin-4-yl)oxy)-5-(4-((3-(2-hydroxypropan-2-yl)phenyl)amino)-1,3,5-triazin-2-yl)benzonitrile] are 5 nM, 767 nM and 3 nM.
In the same order, the values of `Cc1cc(Nc2ncnc(-c3ccc(O[C@H]4CCN(C(=O)[C@H](C)O)C[C@H]4F)c(C#N)c3)n2)ccc1C1CCN(C)CC1` [Example 487, 2-(((3R,4S)-3-fluoro-1-((S)-2-hydroxypropanoyl)piperidin-4-yl)oxy)-5-(4-((3-methyl-4-(1-methylpiperidin-4-yl)phenyl)amino)-1,3,5-triazin-2-yl)benzonitrile] are 1 nM, 324 nM and 3 nM.
